The structures appear in SMILES notation.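 96-well plates; 48 h exposure; 5 concentrations. Endpoints by linear interpolation between flanking doses. Not reached: highest tested concentration assigned. GI50 is the concentration that inhibits growth by half.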 Activity calls are given as the source filed them. Rule as the data show it: active = GI50 up to about 1.1 µM and inactive = higher. Bounds are passed on as bounds.

Some test systems named below: OVCAR-8; NCI-H226; EKVX; KM12; NCI-H23; A549; HCC 2998; HCT-116; SK-MEL-2; RPMI-8226; M14; UO-31; OVCAR-3; HT-29; HCT-15; IGROV-1; LOX IMVI; NCI-H522; NCI/ADR-RES; SR.
Test in all cases: DTP human tumour cell line panel, 48 h

Turning to `Cn1cc(C(=O)/C(Cl)=C(\Cl)C(=O)O)c2ccccc21`, the GI50 in the assay on OVCAR-8, in the assay on NCI-H226, with EKVX, in the assay on KM12, in the assay with NCI-H23 and in the assay with A549 was > 100 µM (inactive) throughout. Further, the GI50 with HCC 2998, in the assay with HCT-116, in the assay on SK-MEL-2, in the assay on RPMI-8226, in the assay with M14 and in the assay on UO-31 was > 100 µM (inactive) in each case. In addition, the GI50 is > 100 µM (inactive) with OVCAR-3, > 100 µM (inactive) with HT-29, more than 100 µM with HCT-15 and > 100 µM (inactive) with IGROV-1.

As for `Cc1c2ccnc(C(F)(F)F)c2cc2c1[nH]c1ccccc12`, the GI50 with OVCAR-8 is 110 µM (inactive); with NCI-H226, 38.9 µM (inactive); in the assay on EKVX, > 125 µM (inactive); in the assay on KM12, 121 µM (inactive); in the assay with NCI-H23 it was > 125 µM (inactive); in the assay on A549, > 125 µM (inactive). Besides, the GI50 in the assay on HCC 2998, with LOX IMVI, in the assay with HCT-116, with NCI-H522, in the assay on NCI/ADR-RES and in the assay on SK-MEL-2 was > 125 µM (inactive) throughout. For the same molecule, the GI50 with RPMI-8226 is 85.1 µM (inactive); in the assay with UO-31, > 125 µM (inactive); in the assay on OVCAR-3 it was 114 µM (inactive); with HT-29, > 125 µM (inactive); in the assay with HCT-15 it was more than 125 µM; in the assay with IGROV-1 it was > 125 µM (inactive).

Turning to `O=C(O)c1ccc([Se][Se]c2ccc(C(=O)O)cc2)cc1`, the GI50 in the assay with OVCAR-8 was 28.6 µM (inactive); in the assay on NCI-H226, 26.8 µM (inactive); in the assay with EKVX, 23.6 µM (inactive); in the assay with KM12, 29 µM (inactive); in the assay with NCI-H23 it was 19.3 µM (inactive); with A549 it was 25.8 µM (inactive). Further, the GI50 is 35.9 µM (inactive) in the assay on HCC 2998; 18.1 µM (inactive) in the assay with HCT-116; 23.6 µM (inactive) with NCI-H522; 27.4 µM (inactive) in the assay with SK-MEL-2; 21.2 µM (inactive) in the assay on RPMI-8226; 18.5 µM (inactive) in the assay with M14. The GI50 in the assay with UO-31 is 29.9 µM (inactive); in the assay on OVCAR-3, 22.5 µM (inactive); with HCT-15 it was 35.6 µM; in the assay with IGROV-1 it was 30.4 µM (inactive); in the assay on SR, > 10 µM (inactive).

Take `COc1cc(Nc2nc3cc(C(F)(F)F)ccc3n3cccc23)cc(OC)c1OC`: the GI50 in the assay with OVCAR-8, with EKVX, with NCI-H23, in the assay with A549, in the assay with HCC 2998 and in the assay on HCT-116 was > 100 µM (inactive) each time. For the same molecule, the GI50 in the assay on NCI-H522 is > 100 µM (inactive); with NCI/ADR-RES, 9.4 µM (inactive); with SK-MEL-2 it was > 100 µM (inactive); in the assay with RPMI-8226 it was > 100 µM (inactive); in the assay on M14, 17.8 µM (inactive); in the assay with UO-31 it was > 100 µM (inactive). Further, the GI50 was > 100 µM (inactive) in the assay on OVCAR-3, more than 100 µM in the assay with HCT-15 and > 100 µM (inactive) with IGROV-1.

On to `CC(O)C(O)C(N)CC=O` (centres undefined), for which the GI50 in the assay on OVCAR-8 was > 500 µM (inactive); in the assay on NCI-H226 it was > 500 µM (inactive); with EKVX, 491 µM (inactive); with KM12, > 500 µM (inactive); with NCI-H23, > 500 µM (inactive); in the assay on A549 it was > 500 µM (inactive). The GI50 is > 500 µM (inactive) in the assay with HCC 2998; 499 µM (inactive) with LOX IMVI; > 500 µM (inactive) with HCT-116; 79.3 µM (inactive) in the assay on NCI-H522; > 500 µM (inactive) in the assay with NCI/ADR-RES; > 500 µM (inactive) with SK-MEL-2. The GI50 is > 500 µM (inactive) with RPMI-8226; > 500 µM (inactive) in the assay on UO-31; > 500 µM (inactive) in the assay with OVCAR-3; > 500 µM (inactive) with HT-29; more than 500 µM with HCT-15; > 500 µM (inactive) in the assay with IGROV-1.

Regarding `Cc1sc(Cc2ccccc2)nc1-c1ccc(N)cc1`, the GI50 was 31 µM (inactive) with OVCAR-8; 31.4 µM (inactive) in the assay on EKVX; 17 µM (inactive) in the assay with KM12; 32.9 µM (inactive) in the assay with NCI-H23; 30.6 µM (inactive) in the assay with A549; 19.1 µM (inactive) in the assay with HCC 2998. The GI50 is 15.2 µM (inactive) with LOX IMVI; 20.2 µM (inactive) in the assay with HCT-116; 16 µM (inactive) with NCI-H522; 27.7 µM (inactive) in the assay on NCI/ADR-RES; 17.3 µM (inactive) in the assay on SK-MEL-2; 16.3 µM (inactive) in the assay on RPMI-8226. Moreover, the GI50 in the assay with M14 was 20.6 µM (inactive); in the assay with UO-31, 38.9 µM (inactive); in the assay with OVCAR-3, 20.7 µM (inactive); with HT-29, 22.6 µM (inactive); in the assay with HCT-15 it was 19.8 µM; in the assay with IGROV-1 it was 27.9 µM (inactive).

On to `O=C(CCl)NC(Cc1ccc(F)cc1)C(=O)O` (centres undefined), for which the GI50 is > 100 µM (inactive) with OVCAR-8; > 100 µM (inactive) in the assay with NCI-H226; > 46 µM (inactive) in the assay on EKVX; > 100 µM (inactive) in the assay with KM12; > 100 µM (inactive) in the assay with NCI-H23; > 100 µM (inactive) with A549. Also, the GI50 is > 92.7 µM (inactive) with HCC 2998; > 100 µM (inactive) in the assay on LOX IMVI; > 100 µM (inactive) with HCT-116; > 100 µM (inactive) in the assay on NCI-H522; > 100 µM (inactive) in the assay on NCI/ADR-RES; > 100 µM (inactive) in the assay with SK-MEL-2. The GI50 with RPMI-8226 is > 100 µM (inactive); in the assay with UO-31, > 100 µM (inactive); in the assay with OVCAR-3, > 100 µM (inactive); with HT-29, > 100 µM (inactive); with HCT-15 it was more than 100 µM; in the assay with IGROV-1 it was > 100 µM (inactive).

Turning to `CC1(C)CCCC2(C)[C@@H]1CC[C@]13C[C@](C)(CC[C@@H]21)[C@@H]3CO` (some centres undefined), the GI50 with NCI-H226, in the assay with KM12, in the assay on NCI-H23, in the assay with A549, in the assay on HCC 2998 and with LOX IMVI was > 100 µM (inactive) in each case. Also, the GI50 with HCT-116, in the assay with NCI-H522, in the assay with RPMI-8226, in the assay on M14, in the assay with UO-31 and with OVCAR-3 was > 100 µM (inactive) each time. Further, the GI50 in the assay on HT-29 was > 100 µM (inactive); in the assay with HCT-15, more than 100 µM; in the assay with IGROV-1, > 100 µM (inactive); in the assay with SR it was > 10 µM (inactive).

Regarding `COc1cc(Nc2c3ccccc3nc3ccccc23)ccc1NS(C)(=O)=O`, the GI50 with OVCAR-8 is 4.5 µM (inactive); in the assay with NCI-H226, 11.2 µM (inactive); in the assay on EKVX, 10 µM (inactive); in the assay with KM12 it was 6.97 µM (inactive); in the assay with NCI-H23 it was > 10 µM (inactive); in the assay with A549, 2.42 µM (inactive). Also, the GI50 with HCC 2998 was 14.2 µM (inactive); in the assay on LOX IMVI it was 2.67 µM (inactive); with HCT-116, 3.27 µM (inactive); in the assay with NCI-H522, 3.42 µM (inactive); in the assay on SK-MEL-2, 7.53 µM (inactive); with RPMI-8226, 2.83 µM (inactive). Besides, the GI50 is 3.14 µM (inactive) in the assay on M14; 4.41 µM (inactive) in the assay with UO-31; 6.53 µM (inactive) in the assay with OVCAR-3; 3.34 µM (inactive) in the assay on HT-29; 10.4 µM (inactive) in the assay with IGROV-1; 2.72 µM (inactive) with SR.

As usually defined, the GI50 is the concentration giving 50% growth inhibition.

For the origin of these results see ChEMBL document CHEMBL1201862, “PubChem BioAssay data set” (2004).
